{
  "source": "paper PMC7503713",
  "about": "“GANT61 Reduces Hedgehog Molecule (GLI1) Expression and Promotes Apoptosis in Metastatic Oral Squamous Cell Carcinoma Cells” (International Journal of Molecular Sciences, 2020)",
  "assay_type_in_all_cases": "cell-based, human",
  "key": {"[1]": {"system": "CAL27", "test": "alamarBlue cytotoxicity assay, CAL27", "conditions": "Homo sapiens, CAL-27, 72 h of incubation", "method": "(§1) To assess the cytotoxicity of the GLI inhibitor GANT61 (Sigma-Aldrich, St. Louis, MO, USA) in tumor and non-tumor cell lines, an alamarBlue assay (Sigma-Aldrich Chemical Co, St. Louis, MO, USA) was performed after 72 h of exposure to the inhibitor, as described by Ahmed et al., 1994 [46]. Cells were distributed on 96-well plates at a density of 7 × 10^4 cells/mL for adhered cells, and 3 × 10^5 cells/mL for cells in suspension. All tested compounds were dissolved in DMSO, added to wells containing 100 µL of cells in complete medium, and then incubated for 72 h. Eight concentrations of GANT61 (0.19 to 50 µg/mL), Doxorubicin (Laboratory IMA S.A.I.C., Buenos Aires, Argentina), and 5-Fluorouracil (5-FU, Sigma-Aldrich, St. Louis, MO, USA), both used as positive controls at concentrations ranging from 0.03 to 5 µg/mL, were added to respective wells. Cells treated with the vehicle (0.5% DMSO) used to dilute the tested compounds were used as negative controls. Before the end of the incubation period (4 h for cell lines and 24 h for PBMCs), 20 µL of alamarBlue stock solution (resazurin, Sigma-Aldrich, St. Louis, MO, USA) was added to each well. Absorbance was measured at 570 nm (reduced) and 595 nm (oxidized) wavelengths, using a Spectramax 190 plate reader (Molecular Devices; Sunnyvale, CA, USA).\n(§2) Statistical analyses were performed, using GraphPad Prism v. 6.03 (GraphPad Software, Inc., San Diego, USA). Data were analyzed according to distribution along the normal Gaussian curve. IC50 values were obtained through non-linear regression, using results from three independent experiments carried out in duplicate. Differences between groups resulting from in vitro assays were evaluated by ANOVA (analysis of variance) testing, followed by the Student–Newman–Keuls test. This study considered a level of significance, corresponding to alpha (α) or “p” value, when results were less than or equal to 5%."}, "[2]": {"system": "SCC15", "test": "alamarBlue cytotoxicity assay, SCC15", "conditions": "Homo sapiens, SCC-15, 72 h of incubation", "method": "as §1, with “Cells treated with the vehicle (0.5% DMSO) used to dilute the tested compounds were used as negative controls. Before the end of the incubation period (4 h for cell lines and 24 h for PBMCs), 20 µL of alamarBlue stock solution (resazurin, Sigma-Aldrich, St. Louis, MO, USA) was added to each well.” left out\n(§3) Statistical analyses were performed, using GraphPad Prism v. […] Data were analyzed according to distribution along the normal Gaussian curve. […] Differences between groups resulting from in vitro assays were evaluated by ANOVA (analysis of variance) testing, followed by the Student–Newman–Keuls test. […]"}, "[3]": {"system": "K562", "test": "alamarBlue cytotoxicity assay, K562", "conditions": "Homo sapiens, 72 h of incubation", "method": "as §1, §2"}, "[4]": {"system": "APC02", "test": "alamarBlue cytotoxicity assay, APC02", "conditions": "Homo sapiens, 72 h of incubation", "method": "as §1, with “Cells treated with the vehicle (0.5% DMSO) used to dilute the tested compounds were used as negative controls. Before the end of the incubation period (4 h for cell lines and 24 h for PBMCs), 20 µL of alamarBlue stock solution (resazurin, Sigma-Aldrich, St. Louis, MO, USA) was added to each well.” left out\nas §3"}, "[5]": {"system": "HCT-116", "test": "alamarBlue cytotoxicity assay, HCT-116", "conditions": "Homo sapiens; HCT-116, alamarBlue, 72 h of incubation", "method": "as §1, §2"}, "[6]": {"system": "HT-29", "test": "alamarBlue cytotoxicity assay, HT-29", "conditions": "Homo sapiens; HT-29, alamarBlue, 72 h of incubation", "method": "as §1, with “Cells treated with the vehicle (0.5% DMSO) used to dilute the tested compounds were used as negative controls. Before the end of the incubation period (4 h for cell lines and 24 h for PBMCs), 20 µL of alamarBlue stock solution (resazurin, Sigma-Aldrich, St. Louis, MO, USA) was added to each well.” left out\nas §3"}, "[7]": {"system": "APC03", "test": "alamarBlue cytotoxicity assay, APC03", "conditions": "Homo sapiens, 72 h of incubation", "method": "as §1, with “Cells treated with the vehicle (0.5% DMSO) used to dilute the tested compounds were used as negative controls. Before the end of the incubation period (4 h for cell lines and 24 h for PBMCs), 20 µL of alamarBlue stock solution (resazurin, Sigma-Aldrich, St. Louis, MO, USA) was added to each well.” left out\nas §3"}, "[8]": {"system": "PBMC", "test": "alamarBlue cytotoxicity assay, PBMC", "conditions": "Homo sapiens, 72 h of incubation", "method": "Human peripheral blood mononuclear cells (PBMC) lymphocytes and monocytes) were obtained from the peripheral blood of healthy, non-smoking volunteers aged 25–35 years. None of the volunteers had used any type of drug or medication for at least 15 days prior to collection. Blood collection (5 mL) was performed in heparinized vials by trained professionals at the Laboratory of Tissue Engineering and Immunopharmacology (LETI, IGM-FIOCRUZ, Salvador, Brazil), using sterile disposable syringes. PBMCs were isolated by a standard protocol described by Dias et al. (2018). The institutional review board of the Gonçalo Moniz Institution, Oswaldo Cruz Foundation (IGM-FIOCRUZ), in Salvador, Bahia, Brazil, approved all experimental protocols (No.031019/2013). All participants provided written informed consent prior to participation in the study.\nTo assess the cytotoxicity of the GLI inhibitor GANT61 (Sigma-Aldrich, St. Louis, MO, USA) in tumor and non-tumor cell lines, an alamarBlue assay (Sigma-Aldrich Chemical Co, St. Louis, MO, USA) was performed after 72 h of exposure to the inhibitor, as described by Ahmed et al., 1994 [46]. Cells were distributed on 96-well plates at a density of 7 × 10^4 cells/mL for adhered cells, and 3 × 10^5 cells/mL for cells in suspension. All tested compounds were dissolved in DMSO, added to wells containing 100 µL of cells in complete medium, and then incubated for 72 h. […] Absorbance was measured at 570 nm (reduced) and 595 nm (oxidized) wavelengths, using a Spectramax 190 plate reader (Molecular Devices; Sunnyvale, CA, USA).\nas §3"}, "[9]": {"system": "SCC4", "test": "alamarBlue cytotoxicity assay, SCC4", "conditions": "Homo sapiens, SCC-4, 72 h of incubation", "method": "as §1, with “Cells treated with the vehicle (0.5% DMSO) used to dilute the tested compounds were used as negative controls. Before the end of the incubation period (4 h for cell lines and 24 h for PBMCs), 20 µL of alamarBlue stock solution (resazurin, Sigma-Aldrich, St. Louis, MO, USA) was added to each well.” left out\nas §3"}, "[10]": {"system": "HSC3", "test": "alamarBlue cytotoxicity assay, HSC3", "conditions": "Homo sapiens, HSC-3, 72 h of incubation", "method": "For cytotoxicity assessments, this study primarily focused on the highly metastatic HSC3 OSCC cell line (JCRB Cell Bank, Osaka, Japan) and employed other histological tumor cell types and non-tumor cells (Supplementary Table S1). HSC3 cells were placed in flasks ([…], 250 mL volume) containing DMEM medium (Gibco, Lif Technologies, Gaithesburg, MD, USA) supplemented with 10% fetal bovine serum (FBS, Gibco, Life Technologies, Gaithesburg, MD, USA) 1% penicillin, 1% streptomycin (Gibco, Life Technologies, Gaithesburg, MD, USA), and 0.8% hydrocortisone (Sigma-Aldrich, St. Louis, MO, USA). Cells were cultured and kept in incubators, under an atmosphere of 5% CO2 at 37 °C. Trypsinization was used to dissociate cells when cell growth reached the necessary confluence, i.e., 70 to 80% of the total culture flask volume. Cell cultures were tested periodically for mycoplasma contamination and evaluated by using a luminometer, according to the MycoAlert^TM PLUS protocol (Lonza, Walkersville Inc., Walkersville, MD, USA, 2012).\nas §1\nStatistical analyses were performed, using GraphPad Prism v. 6.03 (GraphPad Software, Inc., San Diego, USA). Data were analyzed according to distribution along the normal Gaussian curve. […] Differences between groups resulting from in vitro assays were evaluated by ANOVA (analysis of variance) testing, followed by the Student–Newman–Keuls test. […]"}, "[11]": {"system": "HaCat", "test": "alamarBlue cytotoxicity assay, HaCat", "conditions": "Homo sapiens, 72 h of incubation", "method": "as §1, with “Cells treated with the vehicle (0.5% DMSO) used to dilute the tested compounds were used as negative controls. Before the end of the incubation period (4 h for cell lines and 24 h for PBMCs), 20 µL of alamarBlue stock solution (resazurin, Sigma-Aldrich, St. Louis, MO, USA) was added to each well.” left out\nas §3"}, "[12]": {"system": "HL60", "test": "alamarBlue cytotoxicity assay, HL60", "conditions": "Homo sapiens, HL-60, 72 h of incubation", "method": "as §1, with “Cells treated with the vehicle (0.5% DMSO) used to dilute the tested compounds were used as negative controls. Before the end of the incubation period (4 h for cell lines and 24 h for PBMCs), 20 µL of alamarBlue stock solution (resazurin, Sigma-Aldrich, St. Louis, MO, USA) was added to each well.” left out\nas §3"}, "[13]": {"system": "SCC9", "test": "alamarBlue cytotoxicity assay, SCC9", "conditions": "Homo sapiens, SCC-9, 72 h of incubation", "method": "as §1, §2"}, "[14]": {"system": "AGP01", "test": "alamarBlue cytotoxicity assay, AGP01", "conditions": "Homo sapiens, 72 h of incubation", "method": "as §1, with “Cells treated with the vehicle (0.5% DMSO) used to dilute the tested compounds were used as negative controls. Before the end of the incubation period (4 h for cell lines and 24 h for PBMCs), 20 µL of alamarBlue stock solution (resazurin, Sigma-Aldrich, St. Louis, MO, USA) was added to each well.” left out\nas §3"}, "[15]": {"system": "HepG2", "test": "alamarBlue cytotoxicity assay, HepG2", "conditions": "Homo sapiens, 72 h of incubation", "method": "as §1, §2"}, "[16]": {"system": "SCC25", "test": "alamarBlue cytotoxicity assay, SCC25", "conditions": "Homo sapiens, SCC-25, 72 h of incubation", "method": "as §1, with “Cells treated with the vehicle (0.5% DMSO) used to dilute the tested compounds were used as negative controls. Before the end of the incubation period (4 h for cell lines and 24 h for PBMCs), 20 µL of alamarBlue stock solution (resazurin, Sigma-Aldrich, St. Louis, MO, USA) was added to each well.” left out\nas §3"}},
  "data": [
    {"compound": "COc1cccc2c1C(=O)c1c(O)c3c(c(O)c1C2=O)C[C@@](O)(C(=O)CO)C[C@@H]3O[C@H]1C[C@H](N)[C@H](O)[C@H](C)O1", "note": "[Doxorubicin]", "values": [
      {"measurement": "IC50", "setting": "[1]", "result": 3090, "unit": "nM"},
      {"measurement": "IC50", "setting": "[2]", "result": 1500, "unit": "nM"},
      {"measurement": "IC50", "setting": "[3]", "result": 50, "unit": "nM"},
      {"measurement": "IC50", "setting": "[4]", "result": 6800, "unit": "nM"},
      {"measurement": "IC50", "setting": "[5]", "result": 200, "unit": "nM"},
      {"measurement": "IC50", "setting": "[6]", "result": 300, "unit": "nM"},
      {"measurement": "IC50", "setting": "[7]", "result": 2300, "unit": "nM"},
      {"measurement": "IC50", "setting": "[8]", "result": 5200, "unit": "nM"},
      {"measurement": "IC50", "setting": "[9]", "result": 70, "unit": "nM"},
      {"measurement": "IC50", "setting": "[10]", "result": 340, "unit": "nM"},
      {"measurement": "IC50", "setting": "[11]", "result": 100, "unit": "nM"},
      {"measurement": "IC50", "setting": "[12]", "result": 10, "unit": "nM"},
      {"measurement": "IC50", "setting": "[13]", "result": 800, "unit": "nM"},
      {"measurement": "IC50", "setting": "[14]", "result": 1890, "unit": "nM"},
      {"measurement": "IC50", "setting": "[15]", "result": 10, "unit": "nM"},
      {"measurement": "IC50", "setting": "[16]", "result": 1400, "unit": "nM"}
    ]}
  ]
}
